Measured values reported in ChEMBL document CHEMBL4765279, “Discovery of a novel series of imidazo[1',2':1,6]pyrido[2,3-d]pyrimidin derivatives as potent cyclin-dependent kinase 4/6 inhibitors” (Eur J Med Chem, 2020).
The source made the active and inactive calls. No cut-off for these calls is given here.

Legend:
[1] = system: COLO 205; assay: Antiproliferative activity against human COLO 205 cells assessed as cell growth inhibition measured after 4 to 6 days by celltiter-glo luminescent cell viability assay; assay type: functional, cell-based
[2] = system: COLO 205; assay: Antitumor activity against human COLO 205 cells xenografted in BALB/c mouse assessed as tumor growth inhibition at 30 mg/kg, po q3d for 11 days relative to control; assay type: functional; settings: COLO 205, po, time 11 day, read-out: TGI
[3] = molecular target: Cytochrome P450 2D6 (Homo sapiens, UniProt P10635); assay: Time-dependent inhibition of CYP2D6 in human liver microsomes at 10 uM in presence of NADPH by LC-MS/MS analysis; assay type: ADME
Cytochrome P450 2D6, sequence (P10635 whole entry): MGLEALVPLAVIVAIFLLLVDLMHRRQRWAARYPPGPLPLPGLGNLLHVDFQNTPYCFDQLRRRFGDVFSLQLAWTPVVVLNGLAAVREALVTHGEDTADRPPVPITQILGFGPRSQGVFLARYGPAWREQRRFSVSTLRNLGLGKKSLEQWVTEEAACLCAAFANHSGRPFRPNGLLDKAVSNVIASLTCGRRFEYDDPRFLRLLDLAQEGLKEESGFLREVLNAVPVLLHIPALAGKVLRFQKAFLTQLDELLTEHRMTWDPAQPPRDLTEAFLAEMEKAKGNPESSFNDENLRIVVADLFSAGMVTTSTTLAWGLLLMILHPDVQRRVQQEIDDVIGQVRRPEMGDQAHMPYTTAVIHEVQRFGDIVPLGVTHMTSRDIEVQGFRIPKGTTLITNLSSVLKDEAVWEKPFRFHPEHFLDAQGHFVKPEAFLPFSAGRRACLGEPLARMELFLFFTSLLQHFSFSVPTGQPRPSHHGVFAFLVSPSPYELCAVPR

[4] = Toxicity in human COLO 205 cells xenografted BALB/c mouse assessed as body weight loss at 3 mg/kg, po qd for 11 days relative to control; assay type: organism-based; settings: in vivo, time 11 day
[5] = AUC (0 to t) in Sprague-Dawley rat at 3 mg/kg, iv by LC-MS/MS analysis; assay type: ADME, organism-based; set-up: dose 3 mg/kg; settings: in vivo
[6] = system: U-87 MG; assay: Antitumor activity against human U-87 MG cells xenografted in BALB/c mouse assessed as tumor growth inhibition at 10 mg/kg, po qd for 16 days relative to control; assay type: functional, U-87MG ATCC; settings: 384 h, time 16 day, read-out: TGI
[7] = system: MDA-MB-468; assay: Antiproliferative activity against human MDA-MB-468 cells assessed as cell growth inhibition measured after 4 to 6 days by celltiter-glo luminescent cell viability assay; assay type: functional, cell-based
[8] = AUC (0 to t) in BALB/c mouse at 10 mg/kg, po by LC-MS/MS analysis; assay type: ADME, organism-based; set-up: dose 10 mg/kg; settings: in vivo
[9] = molecular target: Cytochrome P450 2C19 (Homo sapiens, UniProt P33261); assay: Time-dependent inhibition of CYP2C19 in human liver microsomes at 10 uM in presence of NADPH by LC-MS/MS analysis; assay type: ADME
Cytochrome P450 2C19, sequence (P33261 whole entry): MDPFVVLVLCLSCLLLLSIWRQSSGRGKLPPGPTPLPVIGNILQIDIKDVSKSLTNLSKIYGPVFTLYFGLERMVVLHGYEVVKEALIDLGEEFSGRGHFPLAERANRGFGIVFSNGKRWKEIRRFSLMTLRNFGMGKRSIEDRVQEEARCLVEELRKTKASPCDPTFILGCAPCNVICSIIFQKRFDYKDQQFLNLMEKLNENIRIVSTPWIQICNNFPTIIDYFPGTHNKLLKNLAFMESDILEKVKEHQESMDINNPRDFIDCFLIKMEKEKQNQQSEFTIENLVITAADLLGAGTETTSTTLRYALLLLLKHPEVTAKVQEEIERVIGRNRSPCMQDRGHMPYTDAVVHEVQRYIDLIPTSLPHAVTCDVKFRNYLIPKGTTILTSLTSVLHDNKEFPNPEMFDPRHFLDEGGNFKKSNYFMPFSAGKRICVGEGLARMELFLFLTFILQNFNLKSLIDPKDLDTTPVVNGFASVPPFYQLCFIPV

[10] = Cmax in Sprague-Dawley rat at 6 mg/kg, po by LC-MS/MS analysis; assay type: ADME, organism-based; set-up: route oral, dose 6 mg/kg; settings: in vivo
[11] = Toxicity in human COLO 205 cells xenografted BALB/c mouse assessed as body weight loss at 30 mg/kg, po q3d for 11 days relative to control; assay type: organism-based; settings: in vivo, time 11 day
[12] = system: COLO 205; assay: Antitumor activity against human COLO 205 cells xenografted in BALB/c mouse assessed as tumor growth at 3 mg/kg, po q3d for 11 days measured post last dose relative to control; assay type: functional; settings: time 11 day
[13] = molecular target: T1, CYP1A2 (Homo sapiens, UniProt P05177); assay: Inhibition of CYP1A2 in human liver microsomes at 10 uM measured after 20 mins in presence of NADPH by LC-MS/MS analysis relative to control; assay type: ADME
T1 sequence (P05177 whole entry): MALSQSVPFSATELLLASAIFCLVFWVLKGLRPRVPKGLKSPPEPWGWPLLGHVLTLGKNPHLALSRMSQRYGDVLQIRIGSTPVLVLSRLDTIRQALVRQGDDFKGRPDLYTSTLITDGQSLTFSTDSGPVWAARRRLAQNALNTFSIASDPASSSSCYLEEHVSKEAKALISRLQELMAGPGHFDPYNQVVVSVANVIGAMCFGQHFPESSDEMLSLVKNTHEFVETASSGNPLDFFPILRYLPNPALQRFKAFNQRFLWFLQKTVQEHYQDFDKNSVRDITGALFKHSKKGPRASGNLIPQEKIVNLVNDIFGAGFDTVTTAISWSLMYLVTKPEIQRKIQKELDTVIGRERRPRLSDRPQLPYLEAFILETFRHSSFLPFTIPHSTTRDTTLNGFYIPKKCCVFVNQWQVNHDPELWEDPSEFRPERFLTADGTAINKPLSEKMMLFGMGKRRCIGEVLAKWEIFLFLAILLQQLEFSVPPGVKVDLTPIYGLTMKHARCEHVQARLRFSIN

[14] = Half life in BALB/c mouse at 10 mg/kg, po by LC-MS/MS analysis; assay type: ADME, organism-based; settings: in vivo
[15] = Intrinsic clearance in rat liver microsomes at 1 uM preincubated for 10 mins followed by NADPH addition and measured after 1 hr by LC-MS/MS analysis; assay type: ADME, Microsome; settings: time 70 min, read-out: CLH
[16] = system: COLO 205; assay: Antitumor activity against human COLO 205 cells xenografted in BALB/c mouse assessed as reduction in tumor volume at 3 mg/kg, po qd for 11 days measured post last dose by caliper method; assay type: functional, organism-based; settings: time 11.0 day
[17] = molecular target: CDK2/Cyclin A2 (Homo sapiens, UniProt P24941)
Description: Inhibition of CDK2/cyclin A2 (unknown origin)

[18] = Volume of distribution at steady state in Sprague-Dawley rat at 3 mg/kg, iv by LC-MS/MS analysis; assay type: ADME, organism-based; settings: in vivo, read-out: Vdss
[19] = molecular target: Cytochrome P450 2C9 (Homo sapiens, UniProt P11712); assay: Time-dependent inhibition of CYP2C9 in human liver microsomes at 10 uM in presence of NADPH by LC-MS/MS analysis; assay type: ADME
Cytochrome P450 2C9, sequence (P11712 whole entry): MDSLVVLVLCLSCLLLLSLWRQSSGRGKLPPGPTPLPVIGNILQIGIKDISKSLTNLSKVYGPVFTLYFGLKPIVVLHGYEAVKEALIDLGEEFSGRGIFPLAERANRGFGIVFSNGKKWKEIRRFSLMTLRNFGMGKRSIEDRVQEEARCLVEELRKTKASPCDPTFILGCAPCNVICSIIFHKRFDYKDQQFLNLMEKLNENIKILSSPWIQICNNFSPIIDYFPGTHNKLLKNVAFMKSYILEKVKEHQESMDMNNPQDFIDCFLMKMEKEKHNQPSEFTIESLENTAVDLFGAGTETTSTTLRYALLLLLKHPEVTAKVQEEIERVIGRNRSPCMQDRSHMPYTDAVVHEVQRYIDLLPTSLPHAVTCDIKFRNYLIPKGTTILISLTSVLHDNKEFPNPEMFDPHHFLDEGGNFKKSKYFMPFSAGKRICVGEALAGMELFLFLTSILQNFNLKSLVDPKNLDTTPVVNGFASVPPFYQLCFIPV

[20] = Toxicity in human U-87 MG cells xenografted BALB/c mouse assessed as body weight loss at 10 mg/kg, po qd for 16 days relative to control; assay type: organism-based; settings: in vivo, 384 h, time 16 day
[21] = molecular target: CDK9/cyclin T1 (Homo sapiens, UniProt P50750)
CDK9/cyclin T1, sequence (O60563 whole entry): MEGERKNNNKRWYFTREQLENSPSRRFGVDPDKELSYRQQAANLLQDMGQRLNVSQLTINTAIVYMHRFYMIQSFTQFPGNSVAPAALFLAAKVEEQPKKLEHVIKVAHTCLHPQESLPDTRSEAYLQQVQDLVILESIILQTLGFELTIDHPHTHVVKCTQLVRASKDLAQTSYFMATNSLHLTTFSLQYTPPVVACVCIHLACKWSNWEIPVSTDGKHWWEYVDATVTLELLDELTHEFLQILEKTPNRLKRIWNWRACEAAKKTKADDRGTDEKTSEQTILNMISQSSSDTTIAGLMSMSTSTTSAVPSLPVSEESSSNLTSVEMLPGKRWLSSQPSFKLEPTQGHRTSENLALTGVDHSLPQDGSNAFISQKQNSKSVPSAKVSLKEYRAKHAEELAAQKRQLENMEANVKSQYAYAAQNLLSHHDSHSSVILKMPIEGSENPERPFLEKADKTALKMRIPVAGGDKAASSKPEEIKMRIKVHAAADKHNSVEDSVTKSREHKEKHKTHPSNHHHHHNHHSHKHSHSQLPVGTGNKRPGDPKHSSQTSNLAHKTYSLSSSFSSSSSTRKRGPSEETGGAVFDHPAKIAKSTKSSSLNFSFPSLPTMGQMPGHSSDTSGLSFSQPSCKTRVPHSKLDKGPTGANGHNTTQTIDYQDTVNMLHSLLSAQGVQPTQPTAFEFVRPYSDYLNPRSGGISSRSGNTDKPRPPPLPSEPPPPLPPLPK
CDK9/cyclin T1, sequence (P50750 whole entry): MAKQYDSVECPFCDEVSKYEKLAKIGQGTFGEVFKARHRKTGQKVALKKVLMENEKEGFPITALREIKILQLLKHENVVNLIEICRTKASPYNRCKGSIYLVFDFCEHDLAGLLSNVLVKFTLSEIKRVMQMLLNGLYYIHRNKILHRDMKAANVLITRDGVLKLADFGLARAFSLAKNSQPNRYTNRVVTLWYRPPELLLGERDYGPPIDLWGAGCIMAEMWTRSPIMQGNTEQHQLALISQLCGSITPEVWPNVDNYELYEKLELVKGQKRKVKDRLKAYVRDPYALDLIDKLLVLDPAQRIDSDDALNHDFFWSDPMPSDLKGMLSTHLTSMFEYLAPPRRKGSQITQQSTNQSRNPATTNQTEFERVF
Description: Inhibition of CDK9/cyclin T1 (unknown origin)

[22] = system: COLO 205; assay: Antitumor activity against human COLO 205 cells xenografted in BALB/c mouse assessed as tumor growth at 3 mg/kg, po qd for 11 days measured post last dose relative to control; assay type: functional; settings: time 11 day
[23] = molecular target: CYP3A4 (Homo sapiens, UniProt P08684); assay: Inhibition of CYP3A4 in human liver microsomes at 10 uM measured after 20 mins in presence of NADPH by LC-MS/MS analysis relative to control; assay type: ADME
CYP3A4, sequence (P08684 whole entry): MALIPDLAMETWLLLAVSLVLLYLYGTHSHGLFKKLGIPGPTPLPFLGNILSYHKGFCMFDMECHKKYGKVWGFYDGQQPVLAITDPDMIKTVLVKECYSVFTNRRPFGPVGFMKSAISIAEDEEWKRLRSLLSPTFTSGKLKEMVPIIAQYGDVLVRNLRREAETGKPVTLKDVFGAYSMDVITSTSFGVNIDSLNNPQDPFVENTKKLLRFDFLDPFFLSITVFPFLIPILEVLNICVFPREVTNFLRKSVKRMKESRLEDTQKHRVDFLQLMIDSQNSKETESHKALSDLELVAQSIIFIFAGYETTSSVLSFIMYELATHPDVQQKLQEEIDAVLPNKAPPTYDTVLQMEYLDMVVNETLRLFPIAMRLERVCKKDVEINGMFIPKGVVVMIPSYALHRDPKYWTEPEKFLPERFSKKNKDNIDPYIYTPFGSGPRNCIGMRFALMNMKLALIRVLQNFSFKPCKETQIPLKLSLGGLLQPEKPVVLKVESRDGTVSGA

[24] = Volume of distribution at steady state in BALB/c mouse at 3 mg/kg, iv by LC-MS/MS analysis; assay type: ADME, organism-based; settings: in vivo, read-out: Vdss
[25] = system: COLO 205; assay: Antitumor activity against human COLO 205 cells xenografted in BALB/c mouse assessed as reduction in tumor volume at 30 mg/kg, po q3d for 11 days measured post last dose by caliper method; assay type: functional, organism-based; settings: time 11.0 day
[26] = molecular target: CYP2D6 (Homo sapiens, UniProt P10635); assay: Inhibition of CYP2D6 in human liver microsomes at 10 uM measured after 20 mins in presence of NADPH by LC-MS/MS analysis relative to control; assay type: ADME
CYP2D6, sequence (P10635 whole entry): as the sequence (P10635 whole entry) above

[27] = Half life in Sprague-Dawley rat at 6 mg/kg, po by LC-MS/MS analysis; assay type: ADME, organism-based; settings: in vivo
[28] = Oral bioavailability in Sprague-Dawley rat at 6 mg/kg by LC-MS/MS analysis; assay type: ADME, organism-based; settings: in vivo
[29] = system: U-87 MG; assay: Antiproliferative activity against human U-87 MG cells assessed as cell growth inhibition measured after 4 to 6 days by celltiter-glo luminescent cell viability assay; assay type: functional, cell-based, U-87MG ATCC
[30] = molecular target: CDK6/Cyclin D3 (Homo sapiens, UniProt Q00534); assay: Inhibition of human full-length N-terminal GST tagged CDK6 (1 to 326 residues)/GST-tagged cyclinD3 (1 to 292 residues) expressed in baculovirus expression system using ULight-elF4E-binding protein 1 peptide as substrate measured after 30 mins by LANCE assay
CDK6/Cyclin D3, sequence (Q00534 whole entry, looked up, the tested form may be a part): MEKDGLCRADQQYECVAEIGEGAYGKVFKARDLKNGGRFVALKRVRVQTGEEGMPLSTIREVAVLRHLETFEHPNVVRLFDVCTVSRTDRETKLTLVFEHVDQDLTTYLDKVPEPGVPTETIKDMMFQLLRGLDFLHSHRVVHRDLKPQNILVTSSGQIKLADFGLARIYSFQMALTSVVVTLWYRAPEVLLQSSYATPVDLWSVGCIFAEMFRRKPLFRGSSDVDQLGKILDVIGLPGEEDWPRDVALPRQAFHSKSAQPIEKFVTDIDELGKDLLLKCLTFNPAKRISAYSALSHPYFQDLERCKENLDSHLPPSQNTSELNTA

IC50 [1]: 56.4 nM | TDI [3]: Not Active | AUCt [5]: 861 ng·h/mL | IC50 [7]: 874 nM | AUC(0-t) [8]: 318 ng·h/mL | TDI [9]: Not Active | Cmax [10]: 110 ng/mL | inhibition at […], 10 µM [13]: 17% | half-life [14]: 4.08 h | microsomal CLint at 1 µM [15]: 54 µL/min/mg | IC50 [17]: 18.9 nM | Vd [18]: 35.2 L/kg | TDI [19]: Not Active | IC50 [21]: 23.4 nM | inhibition at […], 10 µM [23]: 8% | Vd [24]: 46.5 L/kg | inhibition at […], 10 µM [26]: 14% | half-life [27]: 4.96 h | bioavailability [28]: 65.2% | IC50 [29]: 84.6 nM | IC50 [30]: 2 nM
Structure (SMILES): CC(=O)c1c(C)c2cnc(Nc3ccc(N4CCNCC4)cc3)nc2n2cc(C(C)C)nc12
inhibition in vivo at 30 mg/kg [2]: 85% | Activity [4]: < 20% | inhibition in vivo at 10 mg/kg [6]: 54% | Activity [11]: < 20% | T/C [12]: 52% | Activity [16]: Active | Activity [20]: < 20% | T/C [22]: 33% | Activity [25]: Active
